These results are taken from PMC10534891, “Evaluation of 4-Aminoquinoline Hydrazone Analogues as Potential Leads for Drug-Resistant Malaria” (Molecules, 2023).

Series [1] deals with P. falciparum K1 strain. The series is described as follows: P. falciparum K1 asexual growth inhibition, 48 h, SYBR Green-based plate reader assay. The following applies: Plasmodium falciparum, read-out: Plasmodium IC50 ± SE. It counts as cell-based, Plasmodium falciparum. On the procedure:
Sixteen 4-amino-6-methoxy-quinoline hydrazone compounds (see Figure S1, Supplementary Materials for full structures), with methyl and phenyl substituents at the 2-position (R = Me, Ph) and various substituents at R’ (Table 1), were tested for their antimalarial activities. A 1% parasitised culture at the trophozoite stage was treated with the compounds for 48 h at concentrations of 0.003050–200 µM (four-fold serial dilution) against the P. falciparum K1 strain, and the growth was measured using the SYBR Green-based plate reader assay.
(§1) In total, 1% of infected RBCs at the ring or trophozoites stage was exposed to nine dilutions (four-fold serial dilution) of compounds from 50 mM stock solutions in DMSO. A total of 100 µL of culture volume was added in 96-well plates with 100 µL drug dilutions. Plates were either incubated for 48 h or 72 h at 37 °C, 5% CO2, 5% O2 in N2. Following the incubation, 150 µL of the medium was carefully removed and 150 µL of the 5× SYBR Green solution (prepared by adding 2 µL of 10,000× SYBR Green in 4 mL of PBS) was added to each well. Plates were kept in the dark for 45 min. Fluorescence intensity was measured using a microplate reader (Genius Tecan) with an excitation of 485 nm and an emission of 535 nm.
(§2) IC50 values were determined using Graph Pad Prism 5.0. Values were calculated using non-linear regression by using log-transformed drug concentration plotted against dose–response. Parasitaemia was calculated and normalised relative to the response on the controls (cultures without drug).

Series [2] has as its system P. falciparum K1 strain. The note with it: read-out: IC50 (published data); published value for comparison; cited from earlier work.
Series [3] deals with P. falciparum K1 strain. In words: P. falciparum K1 dose-response, 72 h, SYBR Green-based plate reader assay. The series is classed as cell-based. The following applies: Plasmodium falciparum, ring stage, 72 h incubation, read-out: Plasmodium IC50 ± SE. Here is the method:
We set up drug efficacy assays for the eight lead compounds 1–5, 12–14 (selected based on the best antimalarial activities) (Table 1), with 72 h incubation on parasitised culture. A dose–response experiment was initiated on 1% synchronous culture at the ring stages of the P. falciparum K1 strain. The selected compounds were tested at three-fold serial dilutions from 6.86 to 5000 nM. […] The selectivity indices (IC50 human cells/IC50 parasites) were calculated based on the 72 h exposure studies and are presented in Table 2.
as §1, §2

Series [4] is described as follows: MTT cytotoxicity assay, HepG2. It counts as cell-based, Human. The following applies: human, HepG2 cells; MTT, 5 days; read-out: Cell Toxicity IC50 ± SE HepG2. Here is the method:
(§3) An MTT (3-(4,5-dimethylthiazol-2-yl)-2,5-diphenyl tetrazolium bromide) assay was performed to investigate the toxicity of the 4-aminoquinoline hydrazone compounds. HepG2 and MDBK cells were incubated with a two-fold serial dilution at dose ranges from 0.39 to 25 µM for 5 days.
(§4) Human hepatoma (HepG2) and the Madin–Darby bovine kidney (MDBK) cell lines were purchased from American Type Culture Collection (ATCC), USA. The MDBK cell line was cultured with Dulbecco’s Modified Eagle’s Medium (DMEM) containing 4.5 g/L (+)-D-glucose and L-glutamine, while the HepG2 cell line was cultured with RPMI 1640 containing 2 mM L-glutamine and HEPES. The culture medium was supplemented with 10% Fetal Bovine Serum (FBS) and 1% penicillin. Cells were maintained in the presence of 5% CO2 atmosphere at 37 °C. The assay was carried out on a 96-well plate, with each well containing 4 × 10^3 cells. Plates were firstly incubated for 24 h at 37 °C to ensure cell adherence. The cells were then treated with 100 µL of the drug solution prepared at various concentrations and further incubated for 5 days. After the incubation period, 50 µL of the MTT (3-(4,5-dimethylthiazol-2-yl)-2,5-diphenyltetrazolium bromide, Sigma, UK) solution was added to each well and incubated for a further 3 h. The MTT solution and medium were aspirated, 150 µL of DMSO was added to each well, and the results were read on the Ascent plate reader.
(In general: Tetrazolium dyes change colour on reduction, which living cells bring about.)

The subject of another series is HepG2 cells. The series is described as follows: MTT cytotoxicity assay, HepG2. It counts as cell-based, Human. The note with it: HepG2 IC50 (5 days) / K1 72 h IC50; IC50 = 25 μM assumed for compound 13. Here is the method: as §3, §4
A short description of series [5]: MTT cytotoxicity assay, MDBK. It counts as cell-based, bovine. The following applies: bovine, MDBK cells; MTT, 5 days; read-out: Cell Toxicity IC50 ± SE MDBK. On the procedure:
as §3, §4

Another series has as its system MDBK cells. The series is described as follows: MTT cytotoxicity assay, MDBK. The following applies: MDBK IC50 (5 days) / K1 72 h IC50; IC50 = 25 μM assumed for compounds 5 and 13. The series is classed as cell-based, bovine. Here is the method: as §3, §4
For series [6], the system named is P. falciparum K1 cultures. The series is described as follows: Time-course assay, SYBR Green flow cytometer method. It counts as cell-based, Plasmodium falciparum. The following applies: IC50 doses, 24, 48, 72 h. Here is the method: A panel of compounds were selected based on activity and progressed in the time-course assay to define the activity timelines of the compounds. The assay was performed on 1% unsynchronised P. falciparum K1 cultures treated with previously determined IC50 (Table 1) doses of the lead compounds for 24, 48, and 72 h. […] It was also observed that the activity of the compounds became more pronounced as the time progressed up until 72 h of exposure.
The time-course assay was used to define the activity timelines of the 4-aminoquinoline hydrazone compounds. Parasite growth of K1 strain P. falciparum in the presence of 4-aminoquinoline hydrazone compounds was assessed on asynchronous culture. The growth impairment of K1 culture was initiated at 1% parasitaemia for 24, 48, and 72 h. The assay was analysed by flow cytometry as described below.
Following drug efficacy experiments, 100 µL from the control and drug-treated samples on a 96-well plate were transferred to a micro-centrifuge tube containing 1 mL of PBS. The samples were centrifuged at 1200 rpm for 2 min. […] The pellet was re-suspended in PBS (1 mL) and parasitaemia was determined by SYBR Green fluorescence using the FITC channel of the BD FACs Verse flow cytometer system (Blue laser, excitation laser line 488 nM Exmax 494/EMmax 520 nM) and cell size (forward scatter, FSC-A). […]

Read-outs that look alike come from different tables or passages of the source.

A word on the IC50: it is the concentration that inhibits the measured activity by half.

For `CCN(CC)CCCC(C)Nc1ccnc2cc(Cl)ccc12` (stereo not drawn) [Chloroquine, reference compound], the IC50 with P. falciparum K1 strain [1] (K1, 48 h) is 199 ± 40 nM; with P. falciparum K1 strain [2], 255 ± 49 nM.
Regarding `COc1ccc2nc(C)cc(N/N=C/c3cccnc3)c2c1` [Compound 3], the IC50 with P. falciparum K1 strain [1] (K1 strain, trophozoite stage, 48 h incubation) was 3290 ± 1600 nM; in the series on P. falciparum K1 strain [3], 175 ± 40 nM. The IC50 at 5 days in series [4] amounted to 3000 ± 270 nM; in series [5] it was 7340 ± 7600 nM. For the same compound, the “Selectivity Indices (HepG2)” value with HepG2 cells is 17. Also, the “Selectivity Indices (MDBK)” value in the series on MDBK cells was 42. Moreover, the “Onset of activity in time-course” value in series [6] was “delayed activity”.
